Read-outs that look alike come from different tables or passages of the source.

Eleven molecules from US20130252930A1 (BIOMARIN PHARMACEUTICAL INC., priority 2010, published 2013) can be followed below.

The test system of series [1] is rat Cyp11B enzyme (rat adrenal mitochondria). The series is described as follows: CYP11B enzymatic assay (% inhibition at 100 nM) (Biological Example 9). Type of series: biochemical. The following applies: compound at 100 nM. The method, then: Adrenals excised from Sprague Dawley rats were homogenized, and mitochondria fraction were prepared by a series of centrifugation as described in Shuji Ohno, et al. J. of Steroid Biochemistry & Molecular Biology 2002, 80, 355-363. Prepared mitochondria protein was washed and resuspended in Buffer B (0.21 M mannitol, 70 mM sucrose, 5 mM MgCl2, 0.5 mM CaCl2, 20 mM Tris-HCl (pH 7.4) and 1 mM DTT, […]). The protein concentration was determined by BCA assay and stored as 10 μL aliquots at −80° C.
The rat Cyp11B enzyme assay was performed in 96-well plates. Typical assays were carried out in total 50 μL volume that included test compounds at 100 nM concentration, 1× Buffer B, 0.5 mM NADPH, 0.1 μM 11-deoxycortisol, and 2 μL of prepared rat adrenal mitochondria (added last). Reaction without test compound served as positive control and reaction without NADPH served as negative control. Reactions were allowed to incubate at 37° C. for 60 min with gentle shaking. The reaction was stopped by directly applying the enzymatic reaction mixture (1:5 diluted in ELISA assay buffer) to ELISA plate for evaluation of cortisol concentration according to manufacturer's protocol (Assay Design).
The mean absorbance value for each sample was used to determine the corresponding concentration from the standard curve. Amount of cortisol in the negative control (reaction that dis not include NADPH) was subtracted from total cortisol. Percent inhibition (inhibition %) of the compound was calculated using normalized cortisol concentration based on following formula: 100−([Cortisol] of compound/[Cortisol] of positive control *100).

The target of series [2] is T1, CYP17 (human testicular microsome) (Homo sapiens, UniProt P05093).
T1 construct: using microsomal fraction from human testis (Celsis Cat #S00110) as the enzyme source; tissue Celsis S00110; host or cells: human testis microsomal fraction
T1 sequence (P05093 1-508): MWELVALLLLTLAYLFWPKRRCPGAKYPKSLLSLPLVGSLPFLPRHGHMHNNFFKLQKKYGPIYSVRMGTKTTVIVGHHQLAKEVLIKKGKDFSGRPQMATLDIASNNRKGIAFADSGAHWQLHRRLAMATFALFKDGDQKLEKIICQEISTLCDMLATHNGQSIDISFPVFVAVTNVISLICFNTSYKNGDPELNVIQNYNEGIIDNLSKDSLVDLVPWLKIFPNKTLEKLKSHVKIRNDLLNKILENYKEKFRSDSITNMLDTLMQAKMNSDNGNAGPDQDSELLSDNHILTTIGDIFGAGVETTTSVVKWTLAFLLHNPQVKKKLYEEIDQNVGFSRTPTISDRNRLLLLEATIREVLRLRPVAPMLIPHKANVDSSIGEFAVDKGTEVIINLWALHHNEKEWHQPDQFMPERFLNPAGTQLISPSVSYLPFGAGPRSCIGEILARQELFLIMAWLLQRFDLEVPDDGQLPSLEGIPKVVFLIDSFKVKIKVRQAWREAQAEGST
The series is described as follows: CYP17 enzymatic assay (% inhibition at 1 nM) (Biological Example 12). Type of series: biochemical.

In series [3] the target is T1, CYP17 (human testicular microsome). The series is described as follows: CYP17 enzymatic assay (IC50) (Biological Example 4). Type of series: biochemical.
For another series, the target named is T2, CYP17 (H295R cells) (Homo sapiens, UniProt P05093).
T2 construct: endogenous in cells; host or cells: H295R cells
T2 sequence (P05093 1-508): T1 sequence (P05093 1-508)
The series is described as follows: CYP17 cellular assay (IC50), testosterone in H295R cells (Biological Example 7). Type of series: cell-based. The following applies: H295R cells, read-out: Biological Example No. 7: CYP17 cellular assay IC50. The method, boiled down:
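H295R cells cultured 24 h, then exposed to compound at 100, 10, 1, 0.1 nM final in serum-free DMEM/F-12 with ITS+ and 0.1% methanol for 24 h at 37 °C. Medium testosterone measured by ELISA and plotted against compound concentration.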

For series [4], the target named is T3, Cyp21 enzyme (Human HEK 293-Cyp21 stable transfected cells) (Homo sapiens, UniProt P08686).
T3 construct: expressed in transfected cells
T3 sequence (P08686 1-495): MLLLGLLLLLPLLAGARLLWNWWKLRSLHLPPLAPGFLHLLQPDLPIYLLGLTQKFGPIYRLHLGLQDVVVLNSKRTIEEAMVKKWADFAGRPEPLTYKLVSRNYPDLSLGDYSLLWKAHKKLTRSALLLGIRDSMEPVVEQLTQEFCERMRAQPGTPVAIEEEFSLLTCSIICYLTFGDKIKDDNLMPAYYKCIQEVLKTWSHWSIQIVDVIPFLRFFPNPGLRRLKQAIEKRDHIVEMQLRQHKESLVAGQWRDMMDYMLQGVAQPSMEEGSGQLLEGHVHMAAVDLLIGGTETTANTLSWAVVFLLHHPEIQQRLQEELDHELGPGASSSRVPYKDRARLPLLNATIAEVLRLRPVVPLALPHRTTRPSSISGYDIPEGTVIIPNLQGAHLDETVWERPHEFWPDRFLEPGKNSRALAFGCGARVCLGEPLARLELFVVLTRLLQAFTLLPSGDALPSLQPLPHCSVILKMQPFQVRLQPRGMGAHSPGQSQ
The series is described as follows: CYP21-HEK293 enzymatic assay (IC50) (Biological Example 11). Type of series: cell-based. The following applies: HEK 293-Cyp21 cells.
Experimental: This assay was used to determine compound activity against Cyp21 enzyme. […] The next day, 20 μL medium was carefully removed and 10 μL of 10× pre-made compounds in DMEM+10% FBS+10% methanol was transferred to the wells to final concentrations of 1000, 100, 10, 1, or 0.1 nM. Mock treatment was 1% methanol in growth media and the cells were left at 37° C., 5% CO2 for 5 hr. After the incubation, 10 μL of substrate progesterone (Sigma) was added to the wells to make a final concentration of 10 μM. The cells were incubated the cells at 37° C. for 20 hr. At the end of incubation, 90 μL of conditioned media was removed to measure DOC level by ELISA.
The next day, the plates were washed twice with 250 μl of wash solution (0.015M PBS pH 7.4 containing 0.05% Tween 20). After being washed, the wells were blocked with 250 μL blocking buffer (3% BSA in 0.025M PBS, pH 7.4) at 37° C. for 2 h. The plates were washed again 3 times as before, and then 90 μL of sample /standards (prepared in complete growth media) was added into the appropriate wells followed by 10 μL of antibody solution (1:450 rabbit anti-DOC in 0.6% BSA/PBS). The plates were incubated at room temperature for 2 h on a shaker. The contents of the wells were removed and the plate was washed 4 times. After the final wash, 100 μL of secondary antibody (1:12000 HRP-goat-anti-rabbit IgG conjugate 0.6% BSA/PBS) was added into each well. […] The plate was washed again 4 times and 100 μL of TMB substrate solution was added to each well. The plate was incubated at room temperature for 10 min. 100 μL of stop solution was added to each well and the optical density was read at 450 nm.
The mean absorbance value for each sample was used to determine the corresponding concentration from the standard curve. Data was analyzed with “log(antagonist) vs response variable slope” under “non-linear regression analysis” using Prism5 software.

Series [5] is described as follows: Human liver microsome stability assay (Biological Example 8b). The following applies: liver microsomes, pH 7.4.
Experimental: The reaction was started with addition of excess NADPH (5 mg/mL, 15 μL in 0.1 M potassium phosphate buffer, 1.0 mM EDTA, pH 7.4), the total volume is 45 μL (compound final concentration was 1 μM). […] 50 μL of the supernatant was transferred from each well into a 96-well sample plate containing 50 μL of ultra-pure water (Millipore) for LC-MS/MS analysis.
Where [6] appears, read: compound at 1 nM, read-out: CYP17 enzymatic assay % inhibition at 1 nM (Biological Example No. 12).
Setting [7] is: read-out: Biological Example No. 11: CYP21-HEK293 enzymatic assay IC50.
[8] abbreviates: compound at 1 nM, read-out: Biological Example No. 12: CYP17 enzymatic assay % inhibition at 1 nM.
[9] abbreviates: human testicular microsome, read-out: Biological Example No. 4: CYP17 enzymatic assay IC50.

As to `CN1C(=O)C[C@@]2(C)C1=CCC1C2CC[C@]2(C)C(n3ccnc3)=CCC12` (stereo partly drawn) [Compound 186, (3aR,5aS)-6-(1H-imidazol-1-yl)-1,3a,5a-trimethyl-3,3a,3b,4,5,5a,8,8a,8b,9-decahydroindeno[5,4-e]indol-2(1H)-one], the “CYP11B enzymatic assay % inhibition at 100 nM (Biological Example No. 9)” value in series [1] is on record as “U (U means the compound had a percent inhibition of greater than or equal to 32%)”. Also, the inhibition at 0.001 µM in series [2] (setting [6]) is 10 to 50%.

Turning to `Cc1cncc(C2=CCC3C4CC=C5N(C)C(=O)C[C@]5(C)C4CC[C@]23C)c1` (stereo partly drawn) [Compound 188, (3aR,5aS)-1,3a,5a-trimethyl-6-(5-methylpyridin-3-yl)-3,3a,3b,4,5,5a,8,8a,8b,9-decahydroindeno[5,4-e]indol-2(1H)-one], the “CYP11B enzymatic assay % inhibition at 100 nM (Biological Example No. 9)” value in series [1] is “T (T means the compound had a percent inhibition of less than 32% when tested at 100 nM)”. Moreover, the inhibition at 0.001 µM in series [2] (setting [6]) fell in the range of 10 to 50%.

Regarding `CCOc1cncc(C2=CCC3C4CC=C5N(C)C(=O)C[C@]5(C)C4CC[C@]23C)c1` (stereo partly drawn) [Compound 189, (3aR,5aS)-6-(5-ethoxypyridin-3-yl)-1,3a,5a-trimethyl-3,3a,3b,4,5,5a,8,8a,8b,9-decahydroindeno[5,4-e]indol-2(1H)-one], the “CYP11B enzymatic assay % inhibition at 100 nM (Biological Example No. 9)” value in series [1] was “U (U means the compound had a percent inhibition of greater than or equal to 32%)”. The inhibition at 0.001 µM in series [2] (setting [6]) is 10 to 50%.

Take `C[C@]12C=CC(=O)C=C1C1(CC1)C[C@@H]1[C@@H]2CC[C@]2(C)C(c3cccnc3)=CC[C@@H]12` [Compound 316, (10R,13S)-10,13-dimethyl-17-(pyridin-3-yl)-7,8,9,11,12,13,14,15-octahydrospiro[cyclopenta[a]phenanthrene-6,1′-cyclopropan]-3(10H)-one]: the values for the IC50 (in series [3]; at CYP17 (H295R cells) (testosterone); in series [4] (setting [7])) were less than 11 nM, less than 15 nM and less than 10 nM, respectively. Also, in series [2] (setting [8]), the inhibition at 0.001 µM lay within 10 to 50%. This molecule came in with a half-life at 1 μM in series [5] of 1 to 50 min.

Take `C[C@]12CC[C@H]3[C@@H](CCC4=CC(=O)CC[C@@]43C)C1=CC=C2c1cncc(F)c1` [Compound 352, (10R,13S)-17-(5-fluoropyridin-3-yl)-10,13-dimethyl-6,7,8,9,10,11,12,13-octahydro-1H-cyclopenta[a]phenanthren-3(2H)-one]: the concentration for half-maximal inhibition (IC50) in series [3] (setting [9]) was less than 11 nM; on CYP17 (H295R cells) (testosterone), less than 15 nM; in series [4] (setting [7]) it was 10 to 100 nM. Moreover, the inhibition at 0.001 µM in series [2] (setting [8]) is greater than 50%. The half-life at 1 μM in series [5] is 1 to 50 min.

For `CC1CC2C(CC[C@]3(C)C(c4cccnc4)=CCC23)[C@@]2(C)CCNC(=O)C=C12` (stereo partly drawn) [Compound 368, (5aR,7aS)-5a,7a,12-trimethyl-8-(pyridin-3-yl)-3,4,5,5a,5b,6,7,7a,10,10a,11,12-dodecahydrocyclopenta[5,6]naphtho[1,2-d]azepin-2(10bH)-one], the half-inhibitory concentration (IC50) in series [3] (setting [9]) is less than 11 nM; at CYP17 (H295R cells) (testosterone) it was less than 15 nM; in series [4] (setting [7]), less than 10 nM. The inhibition at 0.001 µM in series [2] (setting [8]) was greater than 50%. Also, in series [5], the half-life at 1 μM fell in the range of 1 to 50 min.

For `C[C@]12CCNC(=O)C=C1C1(CC1)CC1C2CC[C@]2(C)C(c3cccnc3)=CCC12` (stereo partly drawn) [Compound 369, (5aR,7aS)-5a,7a-dimethyl-8-(pyridin-3-yl)-3,4,5,5a,5b,6,7,7a,10,10a,10b,11-dodecahydro-2H-spiro[cyclopenta[5,6]naphtho[1,2-d]azepine-12,1′-cyclopropan]-2-one], the results for the half-inhibitory concentration (IC50) (in series [3] (setting [9]); at CYP17 (H295R cells) (testosterone); in series [4] (setting [7])) were less than 11 nM, less than 15 nM and less than 10 nM, respectively. Further, the inhibition at 0.001 µM in series [2] (setting [8]) lay within 10 to 50%. The molecule further had a half-life at 1 μM in series [5] of 1 to 50 min.

`C[C@]12CCNC(=O)C=C1C1CC1[C@@H]1[C@@H]2CC[C@]2(C)C(c3cncc(F)c3)=CC[C@@H]12` (stereo partly drawn) [Compound 388, (5aR,7aS)-8-(5-fluoropyridin-3-yl)-5a,7a-dimethyl-3,4,5,5a,5b,6,7,7a,10,10a,10b,10c,11,11a-tetradecahydro-2H-cyclopenta[5,6]cyclopropa[3,4]naphtho[1,2-d]azepin-2-one]: the IC50 in series [3] (setting [9]) is less than 11 nM; at CYP17 (H295R cells) (testosterone), less than 15 nM; in series [4] (setting [7]) it was greater than 1000 nM. For the same molecule, in series [2] (setting [8]), the inhibition at 0.001 µM is greater than 50%. In addition, the half-life at 1 μM in series [5] was 1 to 50 min.

`C[C@]12CC[C@H](O)CC1=CC[C@@H]1[C@@H]2CC[C@]2(C)C(n3cncc3C#N)=CC[C@@H]12` [Compound 426, 1-((3S,10R,13S)-3-hydroxy-10,13-dimethyl-2,3,4,7,8,9,10,11,12,13,14,15-dodecahydro-1H-cyclopenta[a]phenanthren-17-yl)-1H-imidazole-5-carbonitrile]: the “Biological Example No. 9: CYP11B enzymatic assay % inhibition at 100 nM” value in series [1] is “U (U means the compound had a percent inhibition of greater than or equal to 32%)”. Moreover, the inhibition at 0.001 µM in series [2] (setting [8]) was in the range of 10 to 50%.

For `CN1C(=O)CC[C@@]2(C)C1=CCC1C2CC[C@]2(C)C(c3cncc(F)c3)=CCC12` (stereo partly drawn) [Compound 428, (4aR,6aS)-7-(5-fluoropyridin-3-yl)-1,4a,6a-trimethyl-4,4a,4b,5,6,6a,9,9a,9b,10-decahydro-1H-indeno[5,4-f]quinolin-2(3H)-one], the “Biological Example No. 9: CYP11B enzymatic assay % inhibition at 100 nM” value in series [1] is listed as “U (U means the compound had a percent inhibition of greater than or equal to 32%)”. Moreover, the inhibition at 0.001 µM in series [2] (setting [8]) was 10 to 50%.

For `C[C@]12CCC(=O)C=C1C(F)CC1C2CC[C@]2(C)C(c3cccnc3)=CCC12` (stereo partly drawn) [D, (10R,13S)-6-fluoro-10,13-dimethyl-17-(pyridin-3-yl)-6,7,8,9,10,11,12,13,14,15-decahydro-1H-cyclopenta[a]phenanthren-3(2H)-one, reference compound], the IC50 in series [3] (human testicular microsome, DHEA by ELISA, read-out: Biological Example No. 4: CYP17 enzymatic assay IC50) is less than 11 nM; on CYP17 (H295R cells) (testosterone by ELISA, 24 hours) it was less than 15 nM; in series [4] (DOC by ELISA, read-out: Biological Example No. 11: CYP21-HEK293 IC50) it was greater than 1000 nM. In addition, the inhibition at 0.001 µM in series [2] (1 nM compound, DHEA by ELISA, read-out: Biological Example No. 12: CYP17 percent inhibition at 1 nM) is greater than 50%. This molecule displayed a half-life at 1 μM in series [5] of 1 to 50 min.
